Consider two compounds from patent publication US20060127990A1, “4'-thionucleotide” (GENETICLAB CO., LTD, priority 2002, published 2006).

The target in assay [1] is T1, T7 RNA polymerase (Escherichia phage T7, UniProt P00573). The assay is described as follows: Incorporation of 4′-thio UTP and 4′-thio CTP into RNA chain with T7 RNA polymerase (30mer transcript). As to conditions: 0.4 mM NTPs, replacing the native NTP, 47mer double-stranded DNA template, 37° C., 3 hours. Type of assay: biochemical. Here is the method:
Incorporation experiment using T7 RNA polymerase was performed with 4′-thio UTP and 4′-thio CTP. In this experiment, 47mer double-stranded DNA containing T7 promoter sequence was used (FIG. 9).
The reaction was conducted in 20 μL of a solution containing 40 mM Tris-HCl with pH 8.0, 8 mM MgCl2, 2 mM spermidine, 5 mM DTT, 0.4 mM NTPS, 17 nM [γ-^32P]GTP, 2.0 μM template DNA and 100 U T7 RNA polymerase. NTPs were (1) ATP, GTP, CTP and UTP, (2) using 4′-thio UTP instead of UTP, 3) using 4′-thio CTP instead of CTP, and 4) UTP and CTP were replaced with 4′-thio UTP and 4′-thio CTP. The reaction solution was incubated at 37° C. for 3 hours, and the reaction was stopped. Subsequently, electrophoresis was performed with 20% modified polyacrylamide gel (30×40×0.05 cm, 1800 V, 1 hour, 1×TEB), and analysed by autoradiography.
A relative transcription efficiency is shown in FIG. 10 with a transcription efficiency of native NTPs being defined as 100.

Assay [2] has as its target T1, T7 RNA polymerase. Nature of the assay: Incorporation of 4′-thio UTP into RNA chain with T7 RNA polymerase (26mer transcript). Type of assay: biochemical. The following applies: 0.4 mM NTPs (GTP+ATP+CTP+4′-thio UTP), 100 U T7 RNA polymerase, 37° C., 3 hours; compared with lane 4 (native UTP). Here is the method:
Incorporation experiment using T7 RNA polymerase was performed with 4′-thio UTP obtained in Example 9. In this experiment, double-stranded DNA containing T7 promoter sequence was used (FIG. 7).
The reaction was conducted in 20 μL of a solution containing 40 mM Tris-HCl with PH 8.0, 8 mM MgCl2, 2 mM spermidine, 5 mM DTT, 0.4 mM NTPs, 17 nM [γ-^32P]GTP, 2.0 μM template DNA and 100 U T7 RNA polymerase. NTPs were (1) GTP, (2) GTP+ATP, (3) GTP+ATP+CTP, (4) GTP+ATP+CTP+UTP, and (5) GTP+ATP+CTP+4′-thio UTP, respectively. The reaction solution was incubated at 37° C. for 3 hours, and the reaction was stopped. Subsequently, electrophoresis was performed with 20% modified polyacrylamide gel (30×40×0.05 cm, 1800 V, 1 hour, 1×TEB), and analysed by autoradiography.
In lane 1, bands corresponding to 2mer and 3mer of G and a rudder were observed. In lane 2, an expected band with chain elongation stopped at 6mer was observed, and a minor band elongated by one residue was observed. In lane 3, an expected band with chain elongation stopped at 9mer was observed, and a minor band elongated by one residue was observed. In lane 4, a band of 26mer full-length product was observed.

T1 sequence (P00573 whole entry): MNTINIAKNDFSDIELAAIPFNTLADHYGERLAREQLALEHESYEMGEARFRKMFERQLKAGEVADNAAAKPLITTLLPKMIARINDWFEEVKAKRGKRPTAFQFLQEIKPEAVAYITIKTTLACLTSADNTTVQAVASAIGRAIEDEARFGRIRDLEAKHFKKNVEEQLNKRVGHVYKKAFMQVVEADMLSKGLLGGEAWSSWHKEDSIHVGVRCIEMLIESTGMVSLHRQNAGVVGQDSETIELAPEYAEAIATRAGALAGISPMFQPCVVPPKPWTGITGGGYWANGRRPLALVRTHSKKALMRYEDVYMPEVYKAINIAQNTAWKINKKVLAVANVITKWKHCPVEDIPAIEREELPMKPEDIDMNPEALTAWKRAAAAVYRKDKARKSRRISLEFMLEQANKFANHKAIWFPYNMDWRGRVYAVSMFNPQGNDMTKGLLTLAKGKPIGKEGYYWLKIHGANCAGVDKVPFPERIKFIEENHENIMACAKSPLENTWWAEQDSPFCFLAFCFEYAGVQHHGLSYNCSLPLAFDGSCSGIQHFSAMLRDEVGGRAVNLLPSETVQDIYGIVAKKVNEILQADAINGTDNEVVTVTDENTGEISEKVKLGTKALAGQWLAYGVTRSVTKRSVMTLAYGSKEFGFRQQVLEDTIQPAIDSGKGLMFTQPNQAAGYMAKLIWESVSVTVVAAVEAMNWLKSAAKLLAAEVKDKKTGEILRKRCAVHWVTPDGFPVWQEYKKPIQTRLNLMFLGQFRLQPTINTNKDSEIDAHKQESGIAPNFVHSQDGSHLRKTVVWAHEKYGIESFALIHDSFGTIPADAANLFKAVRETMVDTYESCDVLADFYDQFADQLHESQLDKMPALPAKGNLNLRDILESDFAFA

As for `O=c1ccn([C@@H]2S[C@H](COP(=O)(O)OP(=O)(O)OP(=O)(O)O)[C@@H](O)[C@H]2O)c(=O)[nH]1` [4′-thio UTP, 4′-Thiouridine 5′-triphosphate], the “recognition by T7 RNA polymerase as substrate and incorporation into RNA chain (30mer full-length product)” value on T7 RNA polymerase [1] is “incorporated into RNA chain efficiently”. In addition, on T7 RNA polymerase [2], the “band of full-length product (26mer RNA) when used instead of UTP” value is on record as “approximately the same amount as in lane 4”.
Take `Nc1ccn([C@@H]2S[C@H](COP(=O)(O)OP(=O)(O)OP(=O)(O)O)[C@@H](O)[C@H]2O)c(=O)n1` [4′-thio CTP, 4′-Thiocytidine 5′-triphosphate]: on T7 RNA polymerase [1], the “recognition by T7 RNA polymerase as substrate and incorporation into RNA chain (30mer full-length product)” value is recorded as “incorporated into RNA chain efficiently”.
